{"source": "patent US20070020704A1", "about": "“Diaryl ureas with kinase inhibiting activity” (priority 2003, published 2007)", "key": {"HER2 Receptor": {"molecular_target": "HER2 Receptor (Homo sapiens, UniProt P04626)", "sequence (P04626 23-1255)": "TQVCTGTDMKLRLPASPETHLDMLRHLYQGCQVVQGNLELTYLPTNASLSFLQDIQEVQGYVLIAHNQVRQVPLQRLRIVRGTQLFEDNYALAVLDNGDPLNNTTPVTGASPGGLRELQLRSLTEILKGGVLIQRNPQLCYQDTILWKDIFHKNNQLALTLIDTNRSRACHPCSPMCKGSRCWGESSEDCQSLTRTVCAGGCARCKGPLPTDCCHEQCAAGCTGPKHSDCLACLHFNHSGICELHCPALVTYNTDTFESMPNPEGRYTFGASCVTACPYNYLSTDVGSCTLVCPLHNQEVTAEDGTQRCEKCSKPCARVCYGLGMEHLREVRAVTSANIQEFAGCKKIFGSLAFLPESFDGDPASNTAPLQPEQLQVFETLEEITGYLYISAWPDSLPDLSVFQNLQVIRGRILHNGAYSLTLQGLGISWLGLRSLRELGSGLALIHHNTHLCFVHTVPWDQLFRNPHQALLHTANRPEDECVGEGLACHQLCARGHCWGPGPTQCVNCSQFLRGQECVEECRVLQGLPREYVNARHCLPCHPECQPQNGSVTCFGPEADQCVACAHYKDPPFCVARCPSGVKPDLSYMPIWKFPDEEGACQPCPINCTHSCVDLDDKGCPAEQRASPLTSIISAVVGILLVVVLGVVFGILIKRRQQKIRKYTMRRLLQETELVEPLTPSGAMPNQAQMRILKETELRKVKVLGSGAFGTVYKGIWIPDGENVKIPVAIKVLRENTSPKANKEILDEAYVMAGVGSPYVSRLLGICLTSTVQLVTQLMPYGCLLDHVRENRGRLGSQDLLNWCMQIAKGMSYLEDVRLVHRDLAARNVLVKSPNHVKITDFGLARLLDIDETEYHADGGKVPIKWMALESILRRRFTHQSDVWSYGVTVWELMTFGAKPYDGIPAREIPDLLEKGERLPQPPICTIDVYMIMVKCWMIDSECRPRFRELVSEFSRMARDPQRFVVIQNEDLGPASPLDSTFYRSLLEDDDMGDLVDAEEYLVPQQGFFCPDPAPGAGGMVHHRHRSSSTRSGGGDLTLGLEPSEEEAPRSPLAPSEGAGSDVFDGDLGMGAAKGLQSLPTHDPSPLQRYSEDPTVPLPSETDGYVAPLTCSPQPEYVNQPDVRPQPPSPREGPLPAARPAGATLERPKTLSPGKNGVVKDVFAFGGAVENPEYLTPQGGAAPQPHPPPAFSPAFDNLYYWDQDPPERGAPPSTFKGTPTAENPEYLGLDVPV", "settings": "cellular assay, HER 1 & 2 Pathway"}, "[1]": {"tested_on": "NCI-H460 lung (mutant k-Ras) xenograft", "experiment": "Tumor treatment, NCI-H460 xenograft model", "assay_type": "in vivo", "settings": "p.o., qd×14", "description": "(§1) All treatments were administered p.o. on a qd×14 schedule. […] Similarly, the growth of MIA PaCa-2 tumors was inhibited 44%, 66%, and 73% at dosages of 10, 30, and 100 mg/kg/dose, respectively. The growth of NCI-H460 tumors was inhibited 27% and 56% at dosages of 10 and 30 mg/kg/dose of this Raf kinase inhibitor. The SK-OV-3 model was slightly more sensitive, generating 45%-81% tumor growth inhibitions at dosages of 3 to 100 mg/kg/dose."}, "[2]": {"tested_on": "Raf Pathway phospho-ERK, Melanoma", "experiment": "Cellular assay Raf pathway phospho-ERK, melanoma", "assay_type": "cell-based"}, "melanoma": {"tested_on": "melanoma", "experiment": "Response of a subject having melanoma (PET and CT scans)", "assay_type": "in vivo, human", "settings": "600 mg BID", "description": "A subject having a melanoma was treated with a compound in accordance with the present invention, and then a biopsy sample was assessed using the assay described above.\nThe subject was then administered a 600 mg BID dose of the compound.\nA response to the compound was observed by comparing PET scans taken at baseline vs. the second cycle. […] This response corresponds with a decrease in the percent of nuclei expressing pERK in the post-treatment biopsy. […] The compound utilized was N-[4-chloro-3-(trifluoromethyl)phenyl]-N′-{4-[2-N-methylcarbamoyl-4-pyridyloxy]phenyl}urea."}, "[3]": {"tested_on": "MIA PaCa-2 pancreatic (mutant k-Ras) xenograft", "experiment": "Tumor treatment, MIA PaCa-2 xenograft model", "assay_type": "in vivo, CB17 SCID female mice", "settings": "p.o., qd×14", "description": "as §1\nHCT 116, SK-OV-3, and MIA PaCa-2 stock tumors were maintained as serial s.c. passages of fragments in CD-1 Nu/Nu female mice (HCT 116 and SK-OV-3) or CB17 SCID female mice (MIA-PaCa-2). Treatments were administered orally and were initiated against established tumors. Tumor dimensions were measured via calipers 2-3 times per week and were converted into tumor mass by the formula […], where L and W refer to the largest and smallest dimensions, respectively."}, "c-KIT phosphor-AKT": {"tested_on": "c-KIT phosphor-AKT", "experiment": "Cellular assay c-KIT pathway phosphor-AKT", "assay_type": "cell-based"}, "phospho-ERK": {"tested_on": "phospho-ERK", "experiment": "Immunohistochemical staining of tumor sections with anti-pERK antibodies (melanoma biopsies pre- and post-treatment)", "assay_type": "in vivo, human", "settings": "subject having melanoma, 600 mg BID; post- vs pre-treatment biopsy", "description": "3. Immunohistochemical Staining of Tumor Sections with Anti-pERK Antibodies\nActivated Raf kinase phosphorylates and activates MEK (mitogen-activated protein kinase kinase), which in turn phosphorylates and activates ERK (extracellular signal-regulated kinase), which translocates to the nucleus and modifies gene expression. This pathway is often aberrantly activated in tumor cells due to the presence of activated ras, mutant BRAF, or elevation of growth factor receptors. A semi-quantitative immunohistochemical method was developed to detect phosphorylated ERK (pERK) in human tumor biopsies as a patient selection biomarker for determining whether a patient will be responsive to a compound of the present invention, and also to assess its efficacy. The antibody used was a polyclonal antibody (rabbit) that detects the phosphorylation status of p44 and p42 (phospho-p44/42 MAPK (Thr202/Tyr204)) MAP kinases (ERK1 and ERK2). The procedure was accomplished as follows:\n1. Tumor samples were obtained from patients. Samples were embedded in paraffin and sectioned.\n2. […]\n20. Each tissue section was assessed using the Bioquant TCW98 image analysis system. […]\nA subject having a melanoma was treated with a compound in accordance with the present invention, and then a biopsy sample was assessed using the assay described above. […]"}, "[4]": {"tested_on": "Raf Pathway phospho-ERK, Breast", "experiment": "Cellular assay Raf pathway phospho-ERK, breast (Bio-Plex phospho-ERK1/2 immunoassay)", "assay_type": "cell-based", "settings": "Homo sapiens, inhibition of target phosphorylation in whole cells by 50%", "description": "A 96-well phospho-ERK (PERK) immunoassay, using laser flow cytometry platform has been established to measure inhibition of basal pERK in cell lines. MDA-MB-231 cells were plated at 50,000 cells per well in 96-well microtitre plates in complete growth media. For effects of test compounds on basal pERK1/2 inhibition, the next day after plating, MDA-MB-231 cells were transferred to DMEM with 0.1% BSA and incubated with test compounds diluted 1:3 to a final concentration of 3 μM to 12 nM in 0.1% DMSO. Cells were incubated with test compounds for 2 h, washed, and lysed in Bio-Plex whole cell lysis buffer A. Samples are diluted with buffer B 1:1 (v/v) and directly transferred to assay plate or frozen at −80 C degrees until processed. 50 μL of diluted MDA-MB-231 cell lysates were incubated with about 2000 of 5 micron Bio-Plex beads conjugated with an anti-ERK1/2 antibody overnight on a shaker at room temperature. The next day, biotinylated phospho-ERK1/2 sandwich immunoassay was performed, beads are washed 3 times during each incubation and then 50 μL of PE-strepavidin was used as a developing reagent. The relative fluorescence units of pERK1/2 were detected by counting 25 beads with Bio-Plex flow cell (probe) at high sensitivity. The IC50 was calculated by taking untreated cells as maximum and no cells (beads only) as background."}}, "data": [{"smiles": "COc1ccc(C(F)(F)F)cc1NC(=O)Nc1ccc(Oc2ccnc(C(N)=O)c2)cc1", "note": "[Entry 14, 4-[4-({N-[2-methoxy-5-(trifluoromethyl)phenyl]carbamoyl}amino)phenoxy]pyridine-2-carboxamide]", "values": [{"measurement": "melting point", "result": "114 to 117", "unit": "°C"}]}, {"smiles": "CNC(=O)c1cc(Oc2ccc(NC(=O)Nc3cc(C(F)(F)F)ccc3OC)c(C)c2)ccn1", "note": "[Entry 16, {4-[4-({N-[2-methoxy-5-(trifluoromethyl)phenyl]carbamoyl}amino)-3-methylphenoxy](2-pyridyl)}-N-methylcarboxamide]", "values": [{"measurement": "melting point", "result": "210 to 213", "unit": "°C"}]}, {"smiles": "CNC(=O)c1cc(Oc2ccc(NC(=O)Nc3cc(C(F)(F)F)ccc3OC)c(Cl)c2)ccn1", "note": "[Entry 17, ({2-chloro-4-[2-(N-methylcarbamoyl)(4-pyridyloxy)]phenyl}amino)-N-[2-methoxy-5-(trifluoromethyl)phenyl]carboxamide]", "values": [{"measurement": "melting point", "result": "187 to 188", "unit": "°C"}]}, {"smiles": "CCNC(=O)c1cc(Oc2ccc(NC(=O)Nc3cc(C(F)(F)F)ccc3OC)cc2)ccn1", "note": "[Entry 19, ({4-[2-(N-ethylcarbamoyl)(4-pyridyloxy)]phenyl}amino)-N-[2-methoxy-5-(trifluoromethyl)phenyl]carboxamide]", "values": [{"measurement": "melting point", "result": "194 to 196", "unit": "°C"}]}, {"smiles": "CNC(=O)c1cc(Oc2ccc(NC(=O)Nc3cc(C(F)(F)F)ccc3OC)cc2Cl)ccn1", "note": "[Entry 20, ({3-chloro-4-[2-(N-methylcarbamoyl)(4-pyridyloxy)]phenyl}amino)-N-[2-methoxy-5-(trifluoromethyl)phenyl]carboxamide]", "values": [{"measurement": "melting point", "result": "214 to 216", "unit": "°C"}]}, {"smiles": "CNC(=O)c1cc(Sc2ccc(NC(=O)Nc3cc(C(F)(F)F)ccc3OC)cc2)ccn1", "note": "[Entry 27, N-[2-methoxy-5-(trifluoromethyl)phenyl]({4-[2-(N-methylcarbamoyl)(4-pyridylthio)]phenyl}amino)carboxamide]", "values": [{"measurement": "melting point", "result": "218 to 219", "unit": "°C"}]}, {"smiles": "CNC(=O)c1cc(Oc2ccc(NC(=O)Nc3ccc(Cl)c(C(F)(F)F)c3)c(Cl)c2)ccn1", "note": "[Entry 49, {4-[3-chloro-4-({[4-chloro-3-(trifluoromethyl)phenyl]amino}carbonylamino)phenoxy](2-pyridyl)}-N-methylcarboxamide]", "values": [{"measurement": "melting point", "result": "147 to 151", "unit": "°C"}]}, {"smiles": "CCNC(=O)c1cc(Oc2ccc(NC(=O)Nc3ccc(Cl)c(C(F)(F)F)c3)cc2)ccn1", "note": "[Entry 51, N-[4-chloro-3-(trifluoromethyl)phenyl]({4-[2-(N-ethylcarbamoyl)(4-pyridyloxy)]phenyl}amino)carboxamide]", "values": [{"measurement": "melting point", "result": "187 to 189", "unit": "°C"}]}, {"smiles": "CNC(=O)c1cc(Oc2ccc(NC(=O)Nc3ccc(Br)c(C(F)(F)F)c3)cc2Cl)ccn1", "note": "[Entry 87, {4-[4-({[4-bromo-3-(trifluoromethyl)phenyl]amino}carbonylamino)-2-chlorophenoxy](2-pyridyl)}-N-methylcarboxamide]", "values": [{"measurement": "melting point", "result": "217 to 219", "unit": "°C"}]}, {"smiles": "CCNC(=O)c1cc(Oc2ccc(NC(=O)Nc3ccc(Br)c(C(F)(F)F)c3)cc2)ccn1", "note": "[Entry 88, N-[4-bromo-3-(trifluoromethyl)phenyl]({4-[2-(N-ethylcarbamoyl)(4-pyridyloxy)]phenyl}amino)carboxamide]", "values": [{"measurement": "melting point", "result": "183 to 184", "unit": "°C"}]}, {"smiles": "CNC(=O)c1cc(Oc2ccc(NC(=O)Nc3cc(C(F)(F)F)c(Cl)cc3OC)cc2)ccn1", "note": "[Entry 95, N-[4-chloro-2-methoxy-5-(trifluoromethyl)phenyl]({4-[2-(N-methylcarbamoyl)(4-pyridyloxy)]phenyl}amino)carboxamide]", "values": [{"measurement": "melting point", "result": "140 to 144", "unit": "°C"}]}, {"smiles": "CNC(=O)c1cc(Oc2ccc(NC(=O)Nc3cc(C(F)(F)F)c(Cl)cc3OC)c(Cl)c2)ccn1", "note": "[Entry 96, N-[4-chloro-2-methoxy-5-(trifluoromethyl)phenyl]({2-chloro-4-[2-(N-methylcarbamoyl)(4-pyridyloxy)]phenyl}amino)carboxamide]", "values": [{"measurement": "melting point", "result": "244 to 245", "unit": "°C"}]}, {"smiles": "CNC(=O)c1cc(Oc2ccc(NC(=O)Nc3cc(C(F)(F)F)c(Cl)cc3OC)cc2Cl)ccn1", "note": "[Entry 97, N-[4-chloro-2-methoxy-5-(trifluoromethyl)phenyl]({3-chloro-4-[2-(N-methylcarbamoyl)(4-pyridyloxy)]phenyl}amino)carboxamide]", "values": [{"measurement": "melting point", "result": "220 to 221", "unit": "°C"}]}, {"smiles": "CCNC(=O)c1cc(Oc2ccc(NC(=O)Nc3cc(C(F)(F)F)c(Cl)cc3OC)cc2)ccn1", "note": "[Entry 99, N-[4-chloro-2-methoxy-5-(trifluoromethyl)phenyl]({4-[2-(N-ethylcarbamoyl)(4-pyridyloxy)]phenyl}amino)carboxamide]", "values": [{"measurement": "melting point", "result": "180 to 181", "unit": "°C"}]}, {"smiles": "CNC(=O)c1cc(Oc2ccc(NC(=O)Nc3ccc(Cl)c(C(F)(F)F)c3)cc2)ccn1", "note": "[N-[4-chloro-3-(trifluoromethyl)phenyl]-N′-{4-[2-N-methylcarbamoyl-4-pyridyloxy]phenyl}urea]", "values": [{"measurement": "IC50 (nM)", "setting": "HER2 Receptor", "result": "INACTIVE"}, {"measurement": "growth of NCI-H460 tumors inhibited", "setting": "[1]; 10 mg/kg/dose", "result": 27, "unit": "%"}, {"measurement": "growth of NCI-H460 tumors inhibited", "setting": "[1]; 30 mg/kg/dose", "result": 56, "unit": "%"}, {"measurement": "IC50", "setting": "[2]", "result": 880, "unit": "nM"}, {"measurement": "PET scan metabolic activity after treatment", "setting": "melanoma; baseline vs. second cycle", "result": "completely silent"}, {"measurement": "CT scan measurements by RECIST", "setting": "melanoma; through cycle 6 of treatment", "result": "stable disease"}, {"measurement": "growth of MIA PaCa-2 tumors inhibited", "setting": "[3]; 10 mg/kg/dose", "result": 44, "unit": "%"}, {"measurement": "growth of MIA PaCa-2 tumors inhibited", "setting": "[3]; 30 mg/kg/dose", "result": 66, "unit": "%"}, {"measurement": "growth of MIA PaCa-2 tumors inhibited", "setting": "[3]; 100 mg/kg/dose", "result": 73, "unit": "%"}, {"measurement": "IC50", "setting": "c-KIT phosphor-AKT", "result": 402, "unit": "nM"}, {"measurement": "percent of nuclei expressing pERK in the post-treatment biopsy", "setting": "phospho-ERK", "result": "decrease"}, {"measurement": "IC50", "setting": "[4]", "result": 80, "unit": "nM"}]}]}
